The test system of this data set is phospholipase A2. The conditions noted are these: SUVs with 18:0,18:2-PC 80/20 mol %, Tris pH 8.8, 20 min.

Take `CCCCCCCCCCCCCCCCCC(=O)OCC(COP(=O)([O-])OCC[N+](C)(C)C)OC(=O)CCCc1ccc(N(CCCl)CCCl)cc1` (stereo not shown) [18:0, Chlorambucil-PC]: the “hydrolysis by phospholipase A2” value is recorded as “total”.

The values above are taken from US20040052837A1, “Lipid conjugated anti-cancer drugs and methods of use thereof” (priority 2002, published 2004).
